Laboratory results: patent US12298319B2, “Method for measuring alpha value of muscarinic M1 receptor positive allosteric modulators” (Takeda Pharmaceutical Company Limited, priority 2017, dated 2025)
One block for each compound: values may come before it.

How the values were obtained:
[1] = tested on: rats; test: Assessment of cholinergic side effects in rats; details: SD, rat, in vivo, po, 240 min
Procedure: SD Rats were placed individually into observation cages and acclimated for at least 1 h. […] The severity of diarrhea was scored as follows: 0, normal pellets; 1, wet but formed feces; 2, swollen or mucous feces; 3, severe watery diarrhea. For diarrhea, the number of rats and mice, in which more than or equal to 2 was scored, was counted. For fasciculation, the number of rats with marked fasciculation of both the upper and lower limbs was counted. For lacrimation, the number of rats, in which moderate to marked discharge (severer lacrimation than fluid around eyes) was induced, was counted. For salivation, the number of rats with severe salivation, but not just noticeably wet around mouth, was induced was counted. The maximum score during the observation was adopted.
(§1) For diarrhea, the number of rats scored more than or equal to 2 was counted. For fasciculation, the number of rats with marked fasciculation of both the upper and lower limbs was counted. For lacrimation, the number of rats in which moderate to marked discharge (severer lacrimation than fluid around eyes) was counted. For salivation, the number of rats with severe salivation, but not just noticeably wet around mouth, was counted. The maximum score during the observation was adopted. Data were presented as the number of incidence per total rats.
as §1, with “in which loose” for “scored more than”, “mucous stool, or diarrhea was induced” for “equal to 2”, “(severe” for “(severer”, “eyes) was caused” for “eyes)”, “mouth” for “mouth,”

[2] = biological target: T1, M2R (Homo sapiens, UniProt P08172); test: Ca2+ flux assay in CHO-K1 cells expressing human M2R; assay type: cell-based; parameters: expressed in transfected cells; host or cells: CHO-K1; details: read-out: IP for M2R
T1 sequence (P08172 1-466): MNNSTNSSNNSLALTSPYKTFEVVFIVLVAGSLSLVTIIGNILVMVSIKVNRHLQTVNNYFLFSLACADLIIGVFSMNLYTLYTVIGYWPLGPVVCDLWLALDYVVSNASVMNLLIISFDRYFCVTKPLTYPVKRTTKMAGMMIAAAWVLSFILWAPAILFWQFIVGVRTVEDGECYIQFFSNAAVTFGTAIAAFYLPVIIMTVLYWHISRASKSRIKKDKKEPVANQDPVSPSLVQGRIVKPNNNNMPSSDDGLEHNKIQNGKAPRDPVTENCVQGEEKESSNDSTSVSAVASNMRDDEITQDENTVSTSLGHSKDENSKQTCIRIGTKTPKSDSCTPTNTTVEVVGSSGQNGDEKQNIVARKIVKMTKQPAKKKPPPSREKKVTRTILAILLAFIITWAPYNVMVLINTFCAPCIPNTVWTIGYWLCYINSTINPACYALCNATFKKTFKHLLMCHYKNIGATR

[3] = tested on: scopolamine-induced cognitive deficits in rats; test: Novel object recognition task (NORT), scopolamine-induced memory deficits; assay type: in vivo, rat; details: for minimal efficacy dose in rats (cognitive improvement): NORT, p.o.; for minimal efficacy dose in rats (cognitive improvement) / NDI: scopolamine-treated rats
Procedure: On the day before testing, Long Evans rats were allowed to habituate to the behavioral test room environment for over 1 h, and then they were allowed to habituate to the empty test box (a gray-colored polyvinyl chloride box (40×40×50 cm)) for 10 min individually. Testing was comprised of two 3-min trials called the acquisition and the retention trials. These trials were separated by a given inter-trial interval (ITI). On the testing day, in the acquisition trial, rats were allowed to explore two identical objects (A1 and A2) for 3 min. In the retention trial, rats were again allowed to explore a familiar object (A3) and a novel object (B) for 3 min. The object exploration was defined as rats' licking, sniffing or touching the object with limbs while sniffing. Leaning against the object to look upward, standing or sitting on the object was excluded. The exploration time of each object (A1, A2, A3 and B) in each trial was measured manually. Novel discrimination index (NDI) was calculated using the following equation: novel object interaction/total interaction×100(%).
The acquisition and the retention trials were separated by 4 h ITI. […] Scopolamine (0.1 mg/kg) was administered subcutaneously 30 min prior to the acquisition trial.
(§2) The acquisition and the retention trials were separated by 4 h ITI.
as §2

SMILES: Cn1cc(-c2ccc(Cc3cc4c(=O)n([C@H]5CCCC[C@@H]5O)cnc4c4ccccc34)cn2)cn1 [Compound C, 3-((1S,2S)-2-hydroxycyclohexyl)-6-((6-(1-methyl-1H-pyrazol-4-yl)pyridin-3-yl)methyl)benzo[h]quinazoline-4(3H)-one, reference compound]
Diarrhea ([1]; 0.01 mg/kg): 0/6 (0%)
Fasciculation ([1]; 0.01 mg/kg): 0/6 (0%)
Lacrimation ([1]; 0.01 mg/kg): 0/6 (0%)
Myosis ([1]; 0.01 mg/kg): 0/6 (0%)
Salivation ([1]; 0.01 mg/kg): 0/6 (0%)
Diarrhea ([1]; 0.03 mg/kg): 0/6 (0%)
Fasciculation ([1]; 0.03 mg/kg): 0/6 (0%)
Lacrimation ([1]; 0.03 mg/kg): 0/6 (0%)
Myosis ([1]; 0.03 mg/kg): 0/6 (0%)
Salivation ([1]; 0.03 mg/kg): 0/6 (0%)
Diarrhea ([1]; 0.1 mg/kg): 3/6 (50%)
Fasciculation ([1]; 0.1 mg/kg): 0/6 (0%)
Lacrimation ([1]; 0.1 mg/kg): 0/6 (0%)
Myosis ([1]; 0.1 mg/kg): 0/6 (0%)
Salivation ([1]; 0.1 mg/kg): 0/6 (0%)
Diarrhea ([1]; 0.3 mg/kg): 4/6 (67%)
Fasciculation ([1]; 0.3 mg/kg): 0/6 (0%)
Lacrimation ([1]; 0.3 mg/kg): 0/6 (0%)
Myosis ([1]; 0.3 mg/kg): 0/6 (0%)
Salivation ([1]; 0.3 mg/kg): 0/6 (0%)
minimal diarrhea inducing dose in rats [1]: 0.1 mg/kg
EC50 [2]: > 1 µM
scopolamine-induced cognitive deficits in NORT ([3]; 0.1 and 0.3 mg/kg p.o., rats, P≤0.025): significantly ameliorated scopolamine-induced cognitive deficits
minimal efficacy dose in rats (cognitive improvement) [3]: 0.1 mg/kg
NDI ([3]; Compound C 0.03 mg/kg p.o. alone, Example 29): 52.3%

EC50 [2]: > 10 µM
SMILES: Cc1c(Cc2ccc(-n3cccn3)cc2)cc2c(c1F)CN([C@H]1COCC[C@@H]1O)C2=O [Compound D, 4-fluoro-2-[(3S,4S)-4-hydroxytetrahydro-2H-pyran-3-yl]-5-methyl-6-[4-(1H-pyrazol-1-yl)benzyl]-2,3-dihydro-1H-isoindol-1-one]
Diarrhea ([1]; 1 mg/kg): 0/6 (0%)
Fasciculation ([1]; 1 mg/kg): 0/6 (0%)
Lacrimation ([1]; 1 mg/kg): 0/6 (0%)
Myosis ([1]; 1 mg/kg): 0/6 (0%)
Salivation ([1]; 1 mg/kg): 0/6 (0%)
Diarrhea ([1]; 3 mg/kg): 1/6 (17%)
Fasciculation ([1]; 3 mg/kg): 0/6 (0%)
Lacrimation ([1]; 3 mg/kg): 0/6 (0%)
Myosis ([1]; 3 mg/kg): 0/6 (0%)
Salivation ([1]; 3 mg/kg): 0/6 (0%)
Diarrhea ([1]; 10 mg/kg): 5/6 (83%)
Fasciculation ([1]; 10 mg/kg): 0/6 (0%)
Lacrimation ([1]; 10 mg/kg): 0/6 (0%)
Myosis ([1]; 10 mg/kg): 0/6 (0%)
Salivation ([1]; 10 mg/kg): 0/6 (0%)
Diarrhea ([1]; 30 mg/kg): 4/6 (67%)
Fasciculation ([1]; 30 mg/kg): 0/6 (0%)
Lacrimation ([1]; 30 mg/kg): 0/6 (0%)
Myosis ([1]; 30 mg/kg): 0/6 (0%)
Salivation ([1]; 30 mg/kg): 0/6 (0%)
minimal diarrhea inducing dose in rats [1]: 10 mg/kg
NDI in NORT, scopolamine-induced deficits ([3]; 0.3, 1, and 3 mg/kg p.o., rats, P≤0.025): significantly increased NDI
minimal efficacy dose in rats (cognitive improvement) [3]: 0.3 mg/kg
NDI ([3]; 0.1 mg/kg p.o. alone, Example 28): 54.1%
NDI ([3]; Compound D 0.1 mg/kg p.o. alone, Example 31): 56.8%
